{
  "source": "paper PMC6469224",
  "about": "“Tuning the properties of tris(hydroxypyridinone) ligands: efficient ^68Ga chelators for PET imaging” (Dalton Transactions (Cambridge, England : 2003), 2019)",
  "key": {"[1]": {"assay": "Spectrophotometric titration, acid dissociation constants", "assay_type": "physicochemical", "procedure": "(§1) The THP^Me and THP^H acid dissociation and conditional formation constants for their Ga^3+ and Fe^3+ complexes were investigated by spectrophotometric measurements. pKa and pM values (defined as –log[M^3+] when [ligand]total = 10 μM, [metal]total = 1 μM and pH = 7.4) are reported in Table 2. A full list of the measured conditional formation constants is provided in the ESI (Tables S1–S3 ^†), together with speciation plots calculated for the pH range of the titration. The pKa values for THP chelators are better described as intrinsic protonation constants since they represent the average pKa values of the three hydroxypyridinone units, which could not be distinguished by UV spectrophotometric measurements.[45] The first intrinsic pKa is attributed to the carbonyl group of the HP unit, and the second to the adjacent hydroxyl group. For THP^H a third intrinsic protonation constant, pKa3, associated with deprotonation of the N^1–H group in the pyridinone ring, exists outside the pH range used. The value of pKa3 was estimated to be 13 from the spectral change of the [Fe(THP^H)] complex in the pH 10–12.5 range. The measured protonation constants for THP^H are lower than those measured for deferiprone, but slightly higher than those for THP^Me (that is, THP^Me is slightly more acidic than THP^H).\nThe automated titration system consists of a Metrohm 765 Dosimat autoburette, a Mettler Toledo MP230 pH meter with SENTEK pH electrode (P11), and an HP 8453 UV-visible spectrophotometer with a Hellem quartz flow cuvette, with circulation driven by a Gilson Mini-plus #3 pump (speed capability 20 mL min^–1). A potassium chloride electrolyte solution (0.1 M) was used to maintain the ionic strength. The temperature of the test solutions was maintained in a thermostatic jacketed titration vessel at 25 ± 0.1 °C, using a Fisherbrand Isotemp water bath. The pH electrodes were calibrated using the software GLEE[47] with data obtained by titrating a volumetric standard HCl (0.1 M) in KCl (0.1 M) with KOH (0.1 M) under an atmosphere of argon. Analytical grade reagent materials were used in the preparation of all solutions. The solution under investigation was stirred vigorously during the experiment. For pKa determinations, a cuvette path length of 10 mm was used, while for metal stability constants determinations, a cuvette path length of 50 mm was used (experimental concentration was ca. 40 μM for iron complexes and ca. 10 μM for gallium complexes). All instruments were interfaced to a computer and controlled by an in-house program.\nThe automated titration adopted the following strategy: the pH of a solution was increased in increments of 0.1 pH unit by the addition of potassium hydroxide solution (0.1 M) from the autoburette. The pH readings were judged stable if they varied by less than 0.01 pH unit after a pre-set incubation period. […] The cycle was repeated until the predefined end point pH value was achieved. Titration data were analysed with the HypSpec2014 program[48],[49] […] The fitting spectra range for iron complexes was 400–700 nm while that for gallium complexes was 250–350 nm. pH values higher than 11.3 (outside the pH range in which electrode measurements are considered accurate) were neglected and re-calculated from the added KOH quantity (using “no pH” mode within the HypSpec2014 program). […] Metal affinities of compounds in this study were determined in competition with the metal hydrolysis species in a solution at a high pH (titrated up to pH 12.5). […]"}, "[2]": {"assay": "Spectrophotometric determination of conditional formation constants, Fe^3+ complexes", "assay_type": "binding", "procedure": "as §1\n(§2) The automated titration system consists of a Metrohm 765 Dosimat autoburette, a Mettler Toledo MP230 pH meter with SENTEK pH electrode (P11), and an HP 8453 UV-visible spectrophotometer with a Hellem quartz flow cuvette, with circulation driven by a Gilson Mini-plus #3 pump (speed capability 20 mL min^–1). A potassium chloride electrolyte solution (0.1 M) was used to maintain the ionic strength. The temperature of the test solutions was maintained in a thermostatic jacketed titration vessel at 25 ± 0.1 °C, using a Fisherbrand Isotemp water bath. […]\n(§3) The automated titration adopted the following strategy: the pH of a solution was increased in increments of 0.1 pH unit by the addition of potassium hydroxide solution (0.1 M) from the autoburette. The pH readings were judged stable if they varied by less than 0.01 pH unit after a pre-set incubation period. […] Titration data were analysed with the HypSpec2014 program[48],[49] […] The fitting spectra range for iron complexes was 400–700 nm while that for gallium complexes was 250–350 nm. pH values higher than 11.3 (outside the pH range in which electrode measurements are considered accurate) were neglected and re-calculated from the added KOH quantity (using “no pH” mode within the HypSpec2014 program). […] Metal affinities of compounds in this study were determined in competition with the metal hydrolysis species in a solution at a high pH (titrated up to pH 12.5). […]"}, "[3]": {"assay": "Spectrophotometric determination of conditional formation constants, Ga^3+ complexes", "assay_type": "binding", "procedure": "as §1, §2, §3"}, "[4]": {"details": "cited from earlier work"}, "[5]": {"details": "cited from earlier work", "remark": "listed apart in the source"}, "[6]": {"system": "mouse", "assay": "In vivo ^68Ga scavenging: acetate-buffered ^68Ga injected, then chelator; PET/CT and urine HPLC", "details": "female BALB/c mouse, THPMe at 45 minutes", "procedure": "The ability of THP^H to scavenge gallium in vivo was also investigated. […] This scavenging ability, shared with THP^Me (ESI, Fig. S8 ^†), reflects the rapid complexation kinetics and the extraordinary ability to transchelate gallium (which is known to bind rapidly and almost completely to transferrin when intravenously injected[44]) rapidly in the biological milieu.\nAll in vivo experiments were carried out in accordance with British Home Office regulations governing animal experimentation and complied with guidelines on responsibility in the use of animals in bioscience research of the U.K. Research Councils and Medical Research Charities, under U.K. Home Office project and personal licences. […] Respiration rate and bed temperature were monitored throughout. […] All reconstructed datasets were analysed using VivoQuant 1.21 software (inviCRO), which enables the co-registration of PET and CT images and the delineation of regions of interest (ROIs) for quantification of activity in specific organs. […] Urine was collected and analysed by reversed-phase HPLC (method 3).\nAn E&Z generator was eluted with 5 mL of pure HCl 0.1 M (Fluka analytical) in five 1 mL fractions and their activity measured by a Capintec radionuclide dose calibrator. […]\nQuantitative radiolabelling was obtained for all examined concentrations. […]"}, "[7]": {"details": "0.1 M KCl electrolyte solution, intrinsic pKa for THP ligands (carbonyl group of HP unit), 25 °C, 0.1 M KCl, read-out: pKa1"}, "[8]": {"details": "M3+ + 2 L− ⇄ [ML2]+, repeated as control"}, "[9]": {"details": "M3+ + 3 L− ⇄ [ML3], repeated as control"}, "[10]": {"details": "M3+ + L− ⇄ [ML]2+, repeated as control"}, "[11]": {"details": "–log[M^3+] at [M]total = 1 μM, [L]total = 10 μM, pH = 7.4"}},
  "note": "Like-named read-outs stand apart in the source and are kept apart here.",
  "data": [
    {"smiles": "Cc1c(O)c(=O)ccn1C", "note": "[Deferiprone]", "values": [
      {"measurement": "pKa", "setting": "[1]; [7]", "value": 3.5},
      {"measurement": "pKa", "setting": "[1]; intrinsic pKa for THP ligands (hydroxyl group), 25 °C, 0.1 M KCl, read-out: pKa2", "value": 9.8},
      {"measurement": "Log β [FeL]2+", "setting": "[2]; [8]", "value": 27.5},
      {"measurement": "Log β [FeL3]", "setting": "[2]; [9]", "value": 37.5},
      {"measurement": "Log β [FeL]2+", "setting": "[2]; [10]", "value": 15.0},
      {"measurement": "pFe", "setting": "[2]; [11]", "value": 20.8},
      {"measurement": "Log β [GaL]2+", "setting": "[3]; [8]", "value": 27.0},
      {"measurement": "Log β [GaL3]", "setting": "[3]; [9]", "value": 37.4},
      {"measurement": "Log β [GaL]2+", "setting": "[3]; [10]", "value": 14.4},
      {"measurement": "pGa", "setting": "[3]; [11]", "value": 20.7}
    ]},
    {"smiles": "O=C(O)CN(CCN(CC(=O)O)Cc1ccccc1O)Cc1ccccc1O", "note": "[HBED, N,N-bis(2-hydroxybenzyl)ethylenediamine-N,N-diacetic acid]", "values": [
      {"measurement": "log KGa", "setting": "[4]", "value": 37.73},
      {"measurement": "log KFe", "setting": "[5]", "value": 36.74}
    ]},
    {"smiles": "CC(=O)NC(CCC(=O)NCc1[nH]c(C)cc(=O)c1O)(CCC(=O)NCc1[nH]c(C)cc(=O)c1O)CCC(=O)NCc1[nH]c(C)cc(=O)c1O", "note": "[THP^H]", "values": [
      {"measurement": "pKa", "setting": "[1]; [7]", "value": 3.2},
      {"measurement": "pKa", "setting": "[1]; 0.1 M KCl electrolyte solution, intrinsic pKa for THP ligands (hydroxyl group), 25 °C, 0.1 M KCl, read-out: pKa2", "value": 9.4},
      {"measurement": "pKa", "setting": "[1]; 0.1 M KCl electrolyte solution, pH 10, N^1–H deprotonation, estimated from spectral change of [Fe(THP^H)] in pH 10–12.5, read-out: pKa3", "value": "~13"}
    ]},
    {"smiles": "CC(=O)NC(CCC(=O)NCc1c(O)c(=O)cc(C)n1C)(CCC(=O)NCc1c(O)c(=O)cc(C)n1C)CCC(=O)NCc1c(O)c(=O)cc(C)n1C", "note": "[THP^Me, tris(1,6-dimethyl-3-hydroxypyridin-4-one)]", "values": [
      {"measurement": "In vivo ^68Ga binding and blood clearance after injection of the chelator", "setting": "[6]", "value": "able to bind 68Ga in vivo"}
    ]}
  ]
}
